Measurements from patent US9809574B2, “Isoindoline or isoquinoline compounds, a process for their preparation and pharmaceutical compositions containing them” (LES LABORATOIRES SERVIER, priority 2013, dated 2017).

Legend:
Bcl-2 protein = Bcl-2 protein (histag-Bcl-2, UniProtKB P10415) (Homo sapiens (Human), UniProt P10415); experiment: Inhibition of Bcl-2 by the fluorescence polarisation technique; assay type: binding; details: fluorescence polarisation test; incubation for 2 hours; read-out: IC50 (nM) Bcl-2 FP
Chain of Bcl-2 protein (P10415 whole entry): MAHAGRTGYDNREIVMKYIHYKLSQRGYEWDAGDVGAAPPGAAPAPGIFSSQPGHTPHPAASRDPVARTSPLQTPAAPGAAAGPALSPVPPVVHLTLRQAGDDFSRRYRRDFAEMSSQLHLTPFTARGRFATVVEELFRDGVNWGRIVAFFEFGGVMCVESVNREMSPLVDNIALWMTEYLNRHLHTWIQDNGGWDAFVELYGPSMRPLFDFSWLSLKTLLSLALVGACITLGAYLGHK
Text: For partial inhibitors, the percentage fluorescence polarisation inhibition for a given concentration of the test compound is indicated.

[1] = system: RS4; 11 leukaemia cell line; experiment: In vitro cytotoxicity, Microculture Tetrazolium Assay (MTT); assay type: cell-based; details: Homo sapiens, 11 cells exposed for 48 hours
Method: The cytotoxicity studies were carried out on the RS4; 11 leukaemia cell line and on H146 small Cell Lung Carcinoma cell line. The cells are distributed onto microplates and exposed to the test compounds for 48 hours. The cell viability is then quantified by a colorimetric assay, the Microculture Tetrazolium Assay (Cancer Res., 1987, 47, 939-942).

SMILES | IC50 (Bcl-2 protein) [nM] | IC50 [1] [nM]
Cc1c(C(=O)N(C)c2ccc(O)cc2)cc(-c2cc3c(cc2C(=O)N2Cc4ccccc4C[C@H]2CN2CCOCC2)CN(C(=O)/C=C/c2ccc(Cl)c(Cl)c2)CC3)n1C [Example 137, 5-{2-[(2E)-3-(3,4-dichlorophenyl)prop-2-enoyl]-7-[(3S)-3-(morpholin-4-ylmethyl)-1,2,3,4-tetrahydroisoquinoline-2-carbonyl]-1,2,3,4-tetrahydroisoquinolin-6-yl}-N-(4-hydroxyphenyl)-N,1,2-trimethyl-1H-pyrrole-3-carboxamide] | 9.4 | 47
C[C@@H]1Cc2ccccc2CN1C(=O)c1cc2c(cc1-c1cc(C(=O)N(C)c3ccc(O)cc3)c3n1CCCC3)CCN(C(=O)Oc1ccccc1)C2 [Example 46, Phenyl 6-{1-[(4-hydroxyphenyl)(methyl)carbamoyl]-5,6,7,8-tetrahydroindolizin-3-yl}-7-[(3R)-3-methyl-1,2,3,4-tetrahydroisoquinoline-2-carbonyl]-1,2,3,4-tetrahydroisoquinoline-2-carboxylate] | 3.7 | 2.8
COc1ccccc1OC(=O)N1CCc2cc(-c3cc(C(=O)N(C)c4ccc(O)cc4)c4n3CCCC4)c(C(=O)N3Cc4ccccc4C[C@H]3CN3CCOCC3)cc2C1 [Example 128, 2-Methoxyphenyl 6-{1-[(4-hydroxyphenyl)(methyl)carbamoyl]-5,6,7,8-tetrahydroindolizin-3-yl}-7-[(3S)-3-(morpholin-4-ylmethyl)-1,2,3,4-tetrahydroisoquinoline-2-carbonyl]-1,2,3,4-tetrahydroisoquinoline-2-carboxylate] | 3.5 | 8.2
CC(=O)Nc1ccc(OC(=O)N2CCc3cc(-c4cc(C(=O)N(C)c5ccc(O)cc5)c5n4CCCC5)c(C(=O)N4Cc5ccccc5C[C@H]4C)cc3C2)cc1 [Example 59, 4-Acetamidophenyl 6-{1-[(4-hydroxyphenyl)(methyl)carbamoyl]-5,6,7,8-tetrahydroindolizin-3-yl}-7-[(3R)-3-methyl-1,2,3,4-tetrahydroisoquinoline-2-carbonyl]-1,2,3,4-tetrahydroisoquinoline-2-carboxylate] | 3.2 | 6.8
Cc1c(C(=O)N(C)c2ccc(O)cc2)cc(-c2cc3c(cc2C(=O)N2Cc4ccccc4C[C@H]2C)CN(C(=O)C(C)Oc2ccccc2)C3)n1C (stereo partly drawn) [Example 104, N-(4-hydroxyphenyl)-N,1,2-trimethyl-5-{6-[(3R)-3-methyl-1,2,3,4-tetrahydroisoquinoline-2-carbonyl]-2-(2-phenoxypropanoyl)-2,3-dihydro-1H-isoindol-5-yl}-1H-pyrrole-3-carboxamide] | 6.7 | 65

Continued, in another order:

IC50 (Bcl-2 protein) [nM] | SMILES | IC50 [1] [nM]
5 | Cc1c(C(=O)N(C)c2ccccc2)cc(-c2cc3c(cc2C(=O)N2Cc4ccccc4C[C@H]2C)CN(C(=O)Oc2cccc(CCC(=O)N(C)C)c2)CC3)n1C [Example 787, 3-[2-(Dimethylcarbamoyl)ethyl]phenyl 6-{1,5-dimethyl-4-[methyl(phenyl)carbamoyl]-1H-pyrrol-2-yl}-7-[(3R)-3-methyl-1,2,3,4-tetrahydroisoquinoline-2-carbonyl]-1,2,3,4-tetrahydroisoquinoline-2-carboxylate] | 6.2
6.4 | CN(C(=O)c1cc(-c2cc3c(cc2C(=O)N2Cc4ccccc4C[C@H]2CN2CCOCC2)CN(C(=O)COc2ccccc2)C3)n2ccccc12)c1ccc(O)cc1 [Example 166, N-(4-Hydroxyphenyl)-N-methyl-3-{6-[(3S)-3-(morpholin-4-ylmethyl)-1,2,3,4-tetrahydroisoquinoline-2-carbonyl]-2-(2-phenoxyacetyl)-2,3-dihydro-1H-isoindol-5-yl}indolizine-1-carboxamide] | 58
4.6 | Cc1c(C(=O)N(C)c2ccc(O)cc2)cc(-c2cc3c(cc2C(=O)N2Cc4ccccc4C[C@H]2C)CN(C(=O)NC2CCCCC2)CC3)n1C [Example 792, N-Cyclohexyl-6-{4-[(4-hydroxyphenyl)(methyl)carbamoyl]-1,5-dimethyl-1H-pyrrol-2-yl}-7-[(3R)-3-methyl-1,2,3,4-tetrahydroisoquinoline-2-carbonyl]-1,2,3,4-tetrahydroisoquinoline-2-carboxamide] | 21
